In US8815842B2 (priority 2006, dated 2014):
Converted amounts (≈) assume the structure as drawn. Like-named read-outs stand apart in the source and are kept apart here.

Legend:
[1] = system: foot-and-mouth disease virus (O/JPN/2000 strain); test: microbe, parasite or virus in culture; assay type: cell-based; conditions: in Sus scrofa, 72 h, read-out: plaque formation 50% inhibitory rate (IC50)
[2] = system: foot-and-mouth disease virus serotype Asia 1; assay type: cell-based
[3] = system: foot-and-mouth disease virus serotype A; assay type: cell-based
[4] = system: foot-and-mouth disease virus serotype C; assay type: cell-based
Vero cells = test: cells; assay type: cell-based; conditions: Chlorocebus sabaeus, 96 h, read-out: 50% cell growth inhibitory concentration (IC50)
[5] = pig, in vivo, po, 100 mg/kg
[6] = Corriedale, sheep, in vivo, po, 100 mg/kg
[7] = black-haired Japanese cattle, bovine, in vivo, po, 100 mg/kg
[8] = system: foot-and-mouth disease virus; conditions: pig, in vivo

NC(=O)c1nccnc1O [T-1105, 3-oxo-3,4-dihydro-2-pyrazinecarboxamide]
IC50 [1]: 1.6 µg/mL (≈ 11.5 µM)
25% or more inhibitory concentration [2]: 0.625 µg/mL
25% or more inhibitory concentration [3]: 0.313 µg/mL
25% or more inhibitory concentration [4]: 1.25 µg/mL
IC50 (Vero cells): ≥ 250 µg/mL
Plasma concentration 2 hrs after administration [5]: 75000 ng/mL
Plasma concentration 8 hrs after administration [5]: 36400 ng/mL
Plasma concentration 2 hrs after administration [6]: 30900 ng/mL
Plasma concentration 8 hrs after administration [6]: 10200 ng/mL
Plasma concentration 2 hrs after administration [7]: 7860 ng/mL
Plasma concentration 8 hrs after administration [7]: 173 ng/mL
change in appearance (lameness, dysstasia, blister formation in feet) [8]: no change in their appearance
plasma viral load, in words [8]: remained at the detection limit or bellow
viral load in the nasal swab, in words [8]: scarcely increased
clinical sign ([8]; 400 mg/kg/day): −
plasma viral load ([8]; 400 mg/kg/day): <0.14 TCID50/μL
toxic finding during the administration period ([8]; 400 mg/kg/day): no toxic finding
viral load in the nasal swab ([8]; 400 mg/kg/day): <0.07 TCID50/μL of swab solution
